Results taken from patent US4808589A, “Pyrimidone derivatives” (Smith Kline & French Laboratories Limited, priority 1982, dated 1989).

System: histamine H2 -receptors
Experiment: inhibition of histamine-stimulated secretion of gastric acid from lumen-perfused stomachs of rats anaesthetised with urethane
Type: in vivo, rat
Details: i.v., lumen-perfused stomach of urethane-anaesthetised rats

Row | SMILES | dose causing 50% inhibition of maximal acid secretion
1 | Cc1ccc(Cc2cnc(CCSCc3csc(NC(=N)N)n3)[nH]c2=O)cn1.Cl.Cl.Cl.O [Example 1, 2-[2-(2-guanidino-4-thiazolylmethylthio)ethyl]-5-(6-methyl-3-pyridylmethyl)-4-pyrimidone trihydrochloride hydrate] | less than 1 micromole kg^-1
2 | Cc1ccc(Cc2cnc(CCSCc3ccc(CN(C)C)o3)[nH]c2=O)cn1 [Example 2, 2-[2-(5-dimethylaminomethyl-2-furanylmethylthio)ethyl]-5-(6-methyl-3-pyridyl-ylmethyl)-4-pyrimidone] | less than 1 micromole kg^-1
